The text below walks through data of ChEMBL document CHEMBL1142762, “Identification of 4-methyl-1,2,3,4,10,10a-hexahydropyrazino[1,2-a]indoles as 5-HT2C receptor agonists” (Bioorg Med Chem Lett, 2005).

The target of assay [1] is T1, 5-hydroxytryptamine receptor 2C (Homo sapiens) (UniProt P28335).
T1 sequence (whole entry): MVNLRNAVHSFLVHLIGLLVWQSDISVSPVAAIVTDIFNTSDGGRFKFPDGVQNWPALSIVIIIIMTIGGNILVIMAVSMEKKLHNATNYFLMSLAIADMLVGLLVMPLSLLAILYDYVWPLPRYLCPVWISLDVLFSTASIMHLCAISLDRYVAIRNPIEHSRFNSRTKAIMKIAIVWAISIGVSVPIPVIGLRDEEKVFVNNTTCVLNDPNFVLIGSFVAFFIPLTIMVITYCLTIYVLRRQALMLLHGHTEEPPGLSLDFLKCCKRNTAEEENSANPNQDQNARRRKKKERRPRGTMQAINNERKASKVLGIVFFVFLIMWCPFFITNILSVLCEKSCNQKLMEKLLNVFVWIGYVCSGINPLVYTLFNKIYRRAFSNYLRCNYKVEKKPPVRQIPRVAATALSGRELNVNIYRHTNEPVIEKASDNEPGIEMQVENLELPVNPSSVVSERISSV
In words: Relative efficacy toward 5-HT2C receptor.

For assay [2], the target named is 5-hydroxytryptamine receptor 2A (Homo sapiens, UniProt P28223). In words: Binding affinity toward 5-HT2A receptor evaluated by displacement of [125I]DOI radioligand. (Displacement assays read how much labelled ligand stays bound in the presence of the test substance.)
Assay [3] concerns the target 5-hydroxytryptamine receptor 2B (Homo sapiens, UniProt P41595). Nature of the assay: Binding affinity toward 5-HT2B receptor evaluated by displacement of [3H]5-HT radioligand.
Assay [4] addresses T2, 5-hydroxytryptamine receptor 2C (Homo sapiens, UniProt P28335).
T2 sequence (P28335 whole entry): T1 sequence (whole entry)
In words: Binding affinity toward 5-HT2C receptor evaluated by displacement of [3H]5-HT radioligand.

SMILES strings stand for the structures.

Chain of 5-hydroxytryptamine receptor 2A (P28223 whole entry): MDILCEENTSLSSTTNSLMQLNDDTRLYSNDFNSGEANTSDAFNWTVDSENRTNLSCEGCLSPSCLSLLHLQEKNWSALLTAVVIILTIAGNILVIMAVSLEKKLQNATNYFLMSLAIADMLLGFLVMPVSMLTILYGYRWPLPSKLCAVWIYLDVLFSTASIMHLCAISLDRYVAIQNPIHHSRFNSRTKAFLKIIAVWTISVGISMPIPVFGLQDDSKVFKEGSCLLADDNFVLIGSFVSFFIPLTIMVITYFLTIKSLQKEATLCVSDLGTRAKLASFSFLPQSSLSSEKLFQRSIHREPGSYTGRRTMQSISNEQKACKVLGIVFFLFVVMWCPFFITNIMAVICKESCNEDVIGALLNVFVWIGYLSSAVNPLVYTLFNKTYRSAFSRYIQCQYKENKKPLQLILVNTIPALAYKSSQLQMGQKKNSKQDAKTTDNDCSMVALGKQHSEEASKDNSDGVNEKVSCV
Chain of 5-hydroxytryptamine receptor 2B (P41595 whole entry): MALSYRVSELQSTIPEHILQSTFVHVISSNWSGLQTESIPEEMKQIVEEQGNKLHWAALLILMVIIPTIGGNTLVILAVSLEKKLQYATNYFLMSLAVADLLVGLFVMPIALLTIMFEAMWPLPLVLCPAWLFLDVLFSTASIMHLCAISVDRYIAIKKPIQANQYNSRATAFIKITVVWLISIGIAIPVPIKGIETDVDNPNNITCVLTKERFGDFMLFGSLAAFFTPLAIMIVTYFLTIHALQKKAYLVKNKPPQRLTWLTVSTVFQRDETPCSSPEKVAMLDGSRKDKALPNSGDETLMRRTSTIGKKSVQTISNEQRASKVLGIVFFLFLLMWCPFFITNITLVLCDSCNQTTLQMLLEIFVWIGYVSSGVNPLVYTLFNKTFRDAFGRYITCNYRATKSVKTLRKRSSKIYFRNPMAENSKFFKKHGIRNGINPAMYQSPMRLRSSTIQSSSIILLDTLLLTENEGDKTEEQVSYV

As for `Cc1c(Cl)ccc2c1N1CCNC[C@@H]1C2`, the Efficacy in assay [1] was found to be 80%. Besides, the Ki (usually a dissociation constant, usually derived from enzyme kinetics or from competition with a known ligand) in assay [2] was found to be 52 nM; in assay [3], 140 nM; in assay [4], 32 nM.

In assay [1], `Cc1c(Cl)ccc2c1N1CCNC[C@H]1C2` registered an Efficacy of 90%. For the same compound, the Ki was found to be 6.2 nM in assay [2], 10 nM in assay [3] and 1.5 nM in assay [4].

In assay [1], `Cc1cccc2c1N1[C@@H](CNC[C@H]1C)C2` showed an Efficacy of 100%. In addition, the inhibitory constant (Ki) in assay [2] is 43 nM; in assay [3], 59 nM; in assay [4] it was 2.6 nM.

In assay [1], `CC(=O)Nc1ccc2c(c1)N1[C@@H](CNC[C@H]1C)C2` yielded an Efficacy of 24%. Further, the Ki was 1100 nM in assay [2], 960 nM in assay [3] and 680 nM in assay [4].

In assay [1], `C[C@@H]1CNC[C@@H]2Cc3ccccc3N21` (stereo in doubt; 7) [listing 1 of 2 here] yielded an Efficacy of 94%.

As to `C[C@@H]1CNC[C@H]2Cc3ccc(C(F)(F)F)cc3N21`, in assay [1], the Efficacy came out at 94%. Also, the Ki in assay [2] worked out at 7.5 nM; in assay [3] it was 11 nM; in assay [4], 1.4 nM.

Consider `Cc1c(Cl)ccc2c1N1[C@H](CNC[C@H]1C)C2`, for which the Efficacy in assay [1] stood at 97%. Further, the figures for the Ki in assay [2], in assay [3] and in assay [4] were 40 nM, 19 nM and 1.9 nM, respectively.

With `Cc1ccc2c(c1C)N1[C@@H](CNC[C@H]1C)C2`, the Efficacy in assay [1] was 96%. In addition, the values for the Ki in assay [2], in assay [3] and in assay [4] were 34 nM, 13 nM and 1.7 nM, respectively.

In assay [1], `C[C@H]1CNC[C@@H]2Cc3ccccc3N21` returned an Efficacy of 62%. For the same compound, the Ki in assay [2] is 430 nM; in assay [3] it was 2600 nM; in assay [4], 180 nM.

For the compound `C[C@@H]1CNC[C@H]2Cc3ccc(CO)cc3N21`, the Efficacy in assay [1] was 97%. The Ki is 290 nM in assay [2], 250 nM in assay [3] and 34 nM in assay [4].

In assay [1], `Clc1ccc2c(c1)N1CCNCC1C2` (stereo not drawn) registered an Efficacy of 99%. The Ki in assay [2] turned out to be 32 nM; in assay [3] it was 53 nM; in assay [4], 31 nM.

Consider `C[C@@H]1CNC[C@H]2Cc3ccccc3N21`, for which the Efficacy in assay [1] is 97%. Also, the Ki came out at 1.9 nM in assay [2], 15 nM in assay [3] and 2.2 nM in assay [4].

Regarding `C[C@@H]1CNC[C@@H]2Cc3ccccc3N21` (stereo in doubt; 8) [listing 1 of 2 here], the Ki came out at 61 nM in assay [2], 160 nM in assay [3] and 22 nM in assay [4].

As for `C[C@@H]1CNC[C@@H]2Cc3ccccc3N21` (stereo in doubt; 8) [listing 2 of 2 here], in assay [1], the Efficacy was found to be 87%.

In turn, `Cc1c(Cl)ccc2c1N1[C@@H](CNC[C@H]1C)C2` gave an Efficacy in assay [1] of 98%. For the same compound, the Ki in assay [2] turned out to be 2.6 nM; in assay [3] it was 3.2 nM; in assay [4], 0.3 nM.

Take `Cc1ccc2c(c1)N1[C@@H](CNC[C@H]1C)C2`: in assay [1], the Efficacy was found to be 100%. Also, the Ki in assay [2] worked out at 22 nM; in assay [3], 21 nM; in assay [4] it was 1.3 nM.

`Cc1ccc2c(c1C)N1[C@H](CNC[C@H]1C)C2` yielded an Efficacy in assay [1] of 91%. Further, the Ki came to 102 nM in assay [2], 67 nM in assay [3] and 9.5 nM in assay [4].

For the compound `C[C@@H]1CNC[C@@H]2Cc3ccccc3N21` (stereo in doubt; 7) [listing 2 of 2 here], the inhibition constant Ki turned out to be 55 nM in assay [2], 210 nM in assay [3] and 13 nM in assay [4].

Compound `C[C@@H]1CNC[C@H]2Cc3ccc(C#N)cc3N21` came in with an Efficacy in assay [1] of 77%. Besides, the Ki in assay [2] came to 110 nM; in assay [3], 90 nM; in assay [4], 3.8 nM.
